According to US20100317533A1, “BIOMARKERS OF CANCER METASTASIS” (BRITISH COLUMBIA CANCER AGENCY BRANCH, priority 2009, published 2010):

What was measured:
Assay type in all cases: cell-based, mouse
4T1 cells [1] = assay: Binding of FITC-tagged CAIX inhibitor to cells (epifluorescence), 4T1 cells; settings: hypoxia 72 hours, 10 μM
Experimental: (§1) CAI 17 was a generous gift from Dr. Claudiu Supuran (University of Florence, Florence, Italy). The chemical properties of this sulfonamide have been previously described^20,34. The sulfonamide was dissolved in 100% DMSO, stored at −80° C. and diluted into culture medium just prior to application. Subconfluent cell monolayers were incubated with CAI 17 for 72 hours in normoxia or hypoxia, washed 3× in PBS and imaged using a Ziess Axioplan epifluorescence microscope.
(§2) FIG. 4, part d, depicts localization of the fluorescent CAIX inhibitor, CAI 17, on cells. To determine whether the acidification was CAIX-dependent, cells were treated with a highly specific CAIX inhibitor (compound 17 or “CAI 17”)^20. Cells were incubated in normoxia or hypoxia for 72 hours in the presence of CAI 17 at a concentration of 10 μM. Shown are representative images of the FITC-tagged inhibitor bound to the cells under the indicated experimental conditions. Data were similar in 3 independent experiments.

66cl4 cells [2] = assay: Binding of FITC-tagged CAIX inhibitor to cells (epifluorescence), 66cl4 cells; settings: hypoxia 72 hours, 10 μM
Experimental: as §1, §2

4T1 cells [3] = assay: Measurement of extracellular pH of culture medium, 4T1 cells; settings: hypoxia 72 hours, CAI 17 400 μM
Experimental: (§3) The acquisition, generation and culture of the mouse breast cancer cell lines 4T1, 66cl4 and 67NR have been described previously^11. These 3 cell lines stably express a luciferase reporter^11 and were cultured routinely in DMEM supplemented with 10% FBS, non-essential amino acids and […] puromycin. Incubation in normoxia was carried out in a humidified atmosphere of 5% CO2 and 95% air at 37° C. Cells were maintained in conditions of hypoxia (1% O2 and 5% CO2 balanced with N2) at 37° C. in a humidified incubator positioned in a sealed anaerobic workstation.
Cells were plated in 60 mm dishes and allowed to recover for 24 hours. Growth medium was then replaced with a standard 3 ml volume of fresh media and cells were incubated in normoxia or hypoxia for 72 hours. Spent media was collected in 15 ml conical tubes, maintained at 37° C. and pH was measured immediately using a digital pH meter. Triplicate plates were run for each condition and results were averaged. Cell layers were kept on ice and were harvested for qRT-PCR and Western blot analysis. […]
(§4) Data are expressed as the mean change in extracellular pH±s.e.m. of triplicate samples and are representative of 3 independent experiments. […]
Data are expressed as the mean change in extracellular pH±s.e.m. and are representative of 2 independent experiments (each n=3).

66cl4 cells [4] = assay: Measurement of extracellular pH of culture medium, 66cl4 cells; settings: hypoxia 72 hours, CAI 17 600 μM
Experimental: as §3
Cells were plated in 60 mm dishes and allowed to recover for 24 hours. Growth medium was then replaced with a standard 3 ml volume of fresh media and cells were incubated in normoxia or hypoxia for 72 hours. Spent media was collected in 15 ml conical tubes, maintained at 37° C. and pH was measured immediately using a digital pH meter. Triplicate plates were run for each condition and results were averaged. Cell layers were kept on ice and were harvested for qRT-PCR and Western blot analysis.
CAI 17 was a generous gift from Dr. Claudiu Supuran (University of Florence, Florence, Italy). The chemical properties of this sulfonamide have been previously described^20,34. […]
as §4

67NR cells = assay: Binding of FITC-tagged CAIX inhibitor to cells (epifluorescence), 67NR cells; settings: hypoxia 72 hours, 10 μM
Experimental: as §1, §2

Structure (SMILES): NS(=O)(=O)c1ccc(CCNC(=S)Nc2ccc(-c3c4ccc(=O)cc-4oc4cc(O)ccc34)c(C(=O)O)c2)cc1 [CAI 17]
- binding of FITC-tagged inhibitor to cell surfaces (4T1 cells [1]): binds to the cell surfaces
- binding of FITC-tagged inhibitor to cell surfaces (66cl4 cells [2]): binds to the cell surfaces
- acidification of the extracellular medium under hypoxia (4T1 cells [3]): reversed acidification of the extracellular medium
- acidification of the extracellular medium under hypoxia (66cl4 cells [4]): reversed acidification of the extracellular medium
- binding of FITC-tagged inhibitor to cell surfaces (67NR cells): not
